Data taken from PMC6009964, “Designing, synthesis and bioactivities of 4-[3-(4-hydroxyphenyl)-5-aryl-4,5-dihydro-pyrazol-1-yl]benzenesulfonamides” (Journal of Enzyme Inhibition and Medicinal Chemistry, 2016).
Like-named read-outs stand apart in the source and are kept apart here. One block for each compound: values may come before it.

Assays:
[1] = system: Ca9–22 human oral squamous cell carcinoma cell line (gingiva); test: Cytotoxicity assay (MTT), Ca9-22; conditions: for TS (C/A): CC50 HGF / CC50 Ca9–22 (same tissue origin, gingiva); for CC50: Homo sapiens, Ca9-22, 48 h, read-out: CC50 Ca9–22 (A); for SI (Ca9–22): average CC50 of nonmalignant cells / CC50 towards Ca9–22
hCA IX = biological target: T1, hCA IX (Homo sapiens, UniProt Q16790); test: Stopped-flow CO2 hydration carbonic anhydrase assay, hCA IX; type: biochemical; conditions: for Ki: stopped-flow CO2 hydration, 15 min preincubation, pH 7.5; for times more potent than compound 1 towards hCA IX: ratio of Ki versus compound 1
T1 construct: made in house

[2] = system: HSC-2 human oral squamous cell carcinoma cell line (tongue); test: Cytotoxicity assay (MTT), HSC-2; conditions: for CC50: Homo sapiens, HSC-2, 48 h, read-out: CC50 HSC-2; for SI (HSC-2): average CC50 of nonmalignant cells / CC50 towards HSC-2
[3] = Cytotoxicity assay (MTT), HGF; conditions: human, normal gingival fibroblasts (HGF)
[4] = Cytotoxicity assay (MTT), normal oral cells (mean); conditions: human, normal oral cells HGF, HPLF, HPC (mean of the three)
hCA XII = biological target: T2, hCA XII (Homo sapiens, UniProt O43570); test: Stopped-flow CO2 hydration carbonic anhydrase assay, hCA XII; type: biochemical; conditions: for Ki: stopped-flow CO2 hydration, 15 min preincubation, pH 7.5; for hCA XII/hCA IX (selectivity ratio of Ki): times more selective towards hCA XII than hCA IX; for times more potent than compound 1 towards hCA XII: ratio of Ki versus compound 1
T2 construct: made in house
T2 sequence (O43570 25-354): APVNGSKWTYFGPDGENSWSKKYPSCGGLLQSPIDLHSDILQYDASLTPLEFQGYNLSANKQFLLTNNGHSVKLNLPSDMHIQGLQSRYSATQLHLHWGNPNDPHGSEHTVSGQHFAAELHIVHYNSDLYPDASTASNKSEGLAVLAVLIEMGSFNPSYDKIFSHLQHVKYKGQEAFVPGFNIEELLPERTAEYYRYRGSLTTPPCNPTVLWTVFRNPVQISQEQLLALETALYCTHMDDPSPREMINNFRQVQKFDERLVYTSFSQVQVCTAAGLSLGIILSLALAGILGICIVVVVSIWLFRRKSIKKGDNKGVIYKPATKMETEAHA

[5] = Cytotoxicity assay (MTT), HPLF; conditions: human, normal periodontal ligament fibroblasts (HPLF)
[6] = Cytotoxicity assay (MTT), HPC; conditions: human, normal pulp cells (HPC)
[7] = system: HSC-4 human oral squamous cell carcinoma cell line (tongue); test: Cytotoxicity assay (MTT), HSC-4; conditions: for CC50: Homo sapiens, HSC-4, 48 h, read-out: CC50 HSC-4; for SI (HSC-4): average CC50 of nonmalignant cells / CC50 towards HSC-4
[8] = system: Human oral squamous cell carcinoma cell lines (Ca9–22, HSC-2, HSC-3, HSC-4); test: Cytotoxicity assay (MTT), all four OSCC lines (mean, selectivity); conditions: for CC50: Homo sapiens; for TS (D/B): mean CC50 against normal cells / mean CC50 against cancer cells; for Mean SI: mean SI over four OSCC cell lines
[9] = system: HSC-3 human oral squamous cell carcinoma cell line (tongue); test: Cytotoxicity assay (MTT), HSC-3; conditions: for CC50: Homo sapiens, HSC-3, 48 h, read-out: CC50 HSC-3; for SI (HSC-3): average CC50 of nonmalignant cells / CC50 towards HSC-3
[10] = read-out: CC50 Mean (B), human oral squamous cell carcinoma cell lines

- Ki (hCA IX): 923 nM
- Ki (hCA XII): 68.9 nM
- hCA XII/hCA IX (selectivity ratio of Ki) (hCA XII): 13.4
Compound: NS(=O)(=O)c1ccc(N2N=C(c3ccc(O)cc3)CC2c2ccccc2)cc1 (stereo not shown) [Compound 1, 4-[3-(4-Hydroxyphenyl)-5-phenyl-4,5-dihydro-pyrazol-1-yl]benzenesulfonamide]
- TS (C/A) [1]: 1.6
- CC50 [1]: 82 µM
- SI (Ca9–22) [1]: 1.4
- CC50 [2]: 94.7 µM
- SI (HSC-2) [2]: 1.2
- CC50 at 48 h [3]: 133 µM
- CC50 at 48 h [4]: 118 µM
- CC50 at 48 h [5]: 59.7 µM
- CC50 at 48 h [6]: 161 µM
- CC50 [7]: 83.7 µM
- SI (HSC-4) [7]: 1.4
- CC50 [8, 10]: 85.3 µM
- TS (D/B) [8]: 1.4
- Mean SI [8]: 1.4
- CC50 [9]: 81 µM
- SI (HSC-3) [9]: 1.5

- Ki (hCA IX): 100 nM
- Ki (hCA XII): 95 nM
Compound: Cc1ccc(C2CC(c3ccc(O)cc3)=NN2c2ccc(S(N)(=O)=O)cc2)cc1 (stereo not shown) [Compound 2, 4-[3-(4-Hydroxyphenyl)-5-p-tolyl-4,5-dihydro-pyrazol-1-yl]benzenesulfonamide]
- TS (C/A) [1]: 1.7
- CC50 [1]: 57 µM
- SI (Ca9–22) [1]: 1.7
- CC50 [2]: 95.3 µM
- SI (HSC-2) [2]: 1.0
- CC50 at 48 h [3]: 99.3 µM
- CC50 at 48 h [4]: 97.2 µM
- CC50 at 48 h [5]: 42.3 µM
- CC50 at 48 h [6]: 150 µM
- CC50 [7]: 70.3 µM
- SI (HSC-4) [7]: 1.4
- CC50 [8, 10]: 72.5 µM
- TS (D/B) [8]: 1.3
- Mean SI [8]: 1.4
- CC50 [9]: 67.3 µM
- SI (HSC-3) [9]: 1.4

- times increased inhibition potential versus compound 2 towards hCA IX (hCA IX; ratio of Ki versus compound 2): 1.1
- Ki (hCA IX): 93.1 nM
- times increased inhibition potential versus compound 2 towards hCA XII (hCA XII; ratio of Ki versus compound 2): 2.8
- Ki (hCA XII): 33.6 nM
- hCA XII/hCA IX (selectivity ratio of Ki) (hCA XII): 2.8
Compound: COc1ccc(C2CC(c3ccc(O)cc3)=NN2c2ccc(S(N)(=O)=O)cc2)cc1 (stereo not shown) [Compound 3, 4-[3-(4-Hydroxyphenyl)-5-(4-methoxyphenyl)-4,5-dihydro-pyrazol-1-yl]benzenesulfonamide]
- TS (C/A) [1]: 2.0
- CC50 [1]: 53.3 µM
- SI (Ca9–22) [1]: 2.0
- CC50 [2]: 95.3 µM
- SI (HSC-2) [2]: 1.1
- CC50 at 48 h [3]: 108 µM
- CC50 at 48 h [4]: 105 µM
- CC50 at 48 h [5]: 39.3 µM
- CC50 at 48 h [6]: 167 µM
- CC50 [7]: 88.3 µM
- SI (HSC-4) [7]: 1.2
- CC50 [8, 10]: 77 µM
- TS (D/B) [8]: 1.4
- Mean SI [8]: 1.4
- CC50 [9]: 71 µM
- SI (HSC-3) [9]: 1.5

- Ki (hCA IX): 97.7 nM
- Ki (hCA XII): 38.8 nM
- hCA XII/hCA IX (selectivity ratio of Ki) (hCA XII): 2.5
Compound: NS(=O)(=O)c1ccc(N2N=C(c3ccc(O)cc3)CC2c2ccc(Cl)cc2)cc1 (stereo not shown) [Compound 4, 4-[5-(4-Chlorophenyl)-3-(4-hydroxyphenyl)-4,5-dihydro-pyrazol-1-yl]benzenesulfonamide]
- TS (C/A) [1]: 2.2
- CC50 [1]: 39.7 µM
- SI (Ca9–22) [1]: 2.2
- CC50 [2]: 81.7 µM
- SI (HSC-2) [2]: 1.1
- CC50 at 48 h [3]: 89 µM
- CC50 at 48 h [4]: 87.6 µM
- CC50 at 48 h [5]: 29.3 µM
- CC50 at 48 h [6]: 144 µM
- CC50 [7]: 61 µM
- SI (HSC-4) [7]: 1.4
- CC50 [8, 10]: 59.8 µM
- TS (D/B) [8]: 1.5
- Mean SI [8]: 1.6
- CC50 [9]: 57 µM
- SI (HSC-3) [9]: 1.5

- times more potent than compound 1 towards hCA IX (hCA IX): 10.8
- Ki (hCA IX): 85.7 nM
- times more potent than compound 1 towards hCA XII (hCA XII): 7.5
- Ki (hCA XII): 9.2 nM
- hCA XII/hCA IX (selectivity ratio of Ki) (hCA XII): 9.3
Compound: NS(=O)(=O)c1ccc(N2N=C(c3ccc(O)cc3)CC2c2ccc(Cl)cc2Cl)cc1 (stereo not shown) [Compound 5, 4-[5-(2,4-Dichlorophenyl)-3-(4-hydroxyphenyl)-4,5-dihydro-pyrazol-1-yl]benzenesulfonamide]
- TS (C/A) [1]: 1.4
- CC50 [1]: 44.3 µM
- SI (Ca9–22) [1]: 1.7
- CC50 [2]: 82.3 µM
- SI (HSC-2) [2]: 0.9
- CC50 at 48 h [3]: 63 µM
- CC50 at 48 h [4]: 76.2 µM
- CC50 at 48 h [5]: 34.7 µM
- CC50 at 48 h [6]: 131 µM
- CC50 [7]: 54 µM
- SI (HSC-4) [7]: 1.4
- CC50 [8, 10]: 64.2 µM
- TS (D/B) [8]: 1.2
- Mean SI [8]: 1.3
- CC50 [9]: 76 µM
- SI (HSC-3) [9]: 1.0

Compound: O=c1[nH]cc(F)c(=O)[nH]1 [Compound 5-FU, 5-Fluorouracil, reference compound]
- TS (C/A) [1]: >34.5
- CC50 [1]: 29 µM
- SI (Ca9–22) [1]: >34.5
- CC50 [2]: 13 µM
- SI (HSC-2) [2]: >76.9
- CC50 at 48 h [3]: > 1000 µM
- CC50 at 48 h [4]: > 1000 µM
- CC50 at 48 h [5]: > 1000 µM
- CC50 at 48 h [6]: > 1000 µM
- CC50 [7]: 13 µM
- SI (HSC-4) [7]: >76.9
- CC50 [8, 10]: 17.8 µM
- CC50 ([8]; read-out: CC50 range towards cancer cell lines): 13 to 29 µM
- TS (D/B) [8]: >56.2
- Mean SI [8]: >62.7
- CC50 [9]: 16 µM
- SI (HSC-3) [9]: >62.5

- Ki (hCA IX): 84.1 nM
- Ki (hCA XII): 8.6 nM
- hCA XII/hCA IX (selectivity ratio of Ki) (hCA XII): 9.8
Compound: NS(=O)(=O)c1ccc(N2N=C(c3ccc(O)cc3)CC2c2ccc(F)cc2)cc1 (stereo not shown) [Compound 6, 4-[5-(4-Fluorophenyl)-3-(4-hydroxyphenyl)-4,5-dihydro-pyrazol-1-yl]benzenesulfonamide]
- TS (C/A) [1]: 1.0
- CC50 [1]: 61.7 µM
- SI (Ca9–22) [1]: 1.4
- CC50 [2]: 84.7 µM
- SI (HSC-2) [2]: 1.0
- CC50 at 48 h [3]: 64.7 µM
- CC50 at 48 h [4]: 84.2 µM
- CC50 at 48 h [5]: 33 µM
- CC50 at 48 h [6]: 155 µM
- CC50 [7]: 62.3 µM
- SI (HSC-4) [7]: 1.4
- CC50 [8, 10]: 71.7 µM
- TS (D/B) [8]: 1.2
- Mean SI [8]: 1.2
- CC50 [9]: 78 µM
- SI (HSC-3) [9]: 1.1

- Ki (hCA IX): 66.2 nM
- Ki (hCA XII): 7.6 nM
- hCA XII/hCA IX (selectivity ratio of Ki) (hCA XII): 8.7
Compound: NS(=O)(=O)c1ccc(N2N=C(c3ccc(O)cc3)CC2c2ccc(Br)cc2)cc1 (stereo not shown) [Compound 7, 4-[5-(4-Bromophenyl)-3-(4-hydroxyphenyl)-4,5-dihydro-pyrazol-1-yl]benzenesulfonamide]
- TS (C/A) [1]: 0.9
- CC50 [1]: 55.7 µM
- SI (Ca9–22) [1]: 1.4
- CC50 [2]: 85 µM
- SI (HSC-2) [2]: 0.9
- CC50 at 48 h [3]: 52 µM
- CC50 at 48 h [4]: 78.6 µM
- CC50 at 48 h [5]: 34.3 µM
- CC50 at 48 h [6]: 149 µM
- CC50 [7]: 61.7 µM
- SI (HSC-4) [7]: 1.3
- CC50 [8, 10]: 68.2 µM
- TS (D/B) [8]: 1.2
- Mean SI [8]: 1.2
- CC50 [9]: 70.3 µM
- SI (HSC-3) [9]: 1.1

- times more potent than compound 1 towards hCA IX (hCA IX): 14.5
- Ki (hCA IX): 63.7 nM
- times more potent than compound 1 towards hCA XII (hCA XII): 9.2
- Ki (hCA XII): 7.5 nM
- hCA XII/hCA IX (selectivity ratio of Ki) (hCA XII): 8.5
Compound: NS(=O)(=O)c1ccc(N2N=C(c3ccc(O)cc3)CC2c2ccc([N+](=O)[O-])cc2)cc1 (stereo not shown) [Compound 8, 4-[3-(4-Hydroxyphenyl)-5-(4-nitrophenyl)-4,5-dihydro-pyrazol-1-yl]benzenesulfonamide]
- TS (C/A) [1]: 1.1
- CC50 [1]: 39.3 µM
- SI (Ca9–22) [1]: 1.7
- CC50 [2]: 76 µM
- SI (HSC-2) [2]: 0.9
- CC50 at 48 h [3]: 42 µM
- CC50 at 48 h [4]: 66.2 µM
- CC50 at 48 h [5]: 30 µM
- CC50 at 48 h [6]: 127 µM
- CC50 [7]: 63.7 µM
- SI (HSC-4) [7]: 1.0
- CC50 [8, 10]: 60.6 µM
- TS (D/B) [8]: 1.1
- Mean SI [8]: 1.2
- CC50 [9]: 63.3 µM
- SI (HSC-3) [9]: 1.0

- times more potent than compound 1 towards hCA IX (hCA IX): 17.3
- times more potent than compound 1 towards hCA XII (hCA XII): 11.1
- hCA XII/hCA IX (selectivity ratio of Ki) (hCA XII): 8.6
Compound: NS(=O)(=O)c1ccc(N2N=C(c3ccc(O)cc3)CC2c2cccs2)cc1 (stereo not shown) [Compound 9, 4-[3-(4-Hydroxyphenyl)-5-(thiophen-2-yl)-4,5-dihydro-pyrazol-1-yl]benzenesulfonamide]
- TS (C/A) [1]: 1.7
- CC50 [1]: 99.3 µM
- SI (Ca9–22) [1]: 1.2
- CC50 [2]: 67 µM
- SI (HSC-2) [2]: 1.8
- CC50 at 48 h [3]: 166 µM
- CC50 at 48 h [4]: 122 µM
- CC50 at 48 h [5]: 26.7 µM
- CC50 at 48 h [6]: 173 µM
- CC50 [7]: 93.7 µM
- SI (HSC-4) [7]: 1.3
- CC50 [8, 10]: 86.8 µM
- TS (D/B) [8]: 1.4
- Mean SI [8]: 1.4
- CC50 [9]: 87.3 µM
- SI (HSC-3) [9]: 1.4
